# Source: PubChem BioAssay AID2060330 (Molecular Pharmacology Branch, DTP, NCI, 2025)
# Where “and” joins values, the source holds several entries; their conditions need not be identical. Equal values may be shown once.
# Tested on: LG0703-F948-PDC spheroids with HUVEC/MSC, viability
# Test: Anticancer human tumor LG0703-F948-PDC patient-derived lung adenocarcinoma cell line growth inhibition [IpAb]
# Settings: for viability, T/C: stronger effect = lower value
# From the text: Combinatorial screen of targeted agents with ipatasertib and abemaciclib in multi-cell type tumor spheroids
# A high-throughput screen of multi-cell type tumor spheroids was designed to identify active combinations of targeted small molecules and ipatasertib or abemaciclib. Complex spheroids include a stromal component modeled by human endothelial cells (HUVEC) and fibroblasts modeled by human mesenchymal stem cells (MSCs). The concentration ranges selected for each drug and investigational agent were based upon clinically achievable concentrations if the clinical Cmax of the agent was known.
# Compounds. The drugs and investigational agents: ipatasertib (NSC767898), abemaciclib(NSC768073), selumetinib (NSC741078), trametinib (758246), adavosertib (NSC754352), everolimus (NSC733504), sapanisertib (NSC764658), vemurafenib (NSC761431), venetoclax (NSC766270), copanlisib (NSC809693), apelisib (NSC765974), palbociblib (NSC758247), vemurafenib (NSC761431), dabrafenib (NSC764134), ravoxertinib (NSC781343), BMS-387032 (NSC767048), sotorasib (NSC818433), talazoparib (NSC767125) and afursertib (NSC778305), were obtained from the National Cancer Institute (NCI) Developmental Therapeutics Program Chemical Repository. The FDA-approved anticancer drug set is available from the NCI Developmental Therapeutics Program. […] The stock solutions were prepared in dimethyl sulfoxide (DMSO, Sigma-Aldrich, St. Louis, MO, cat. D2650) at 800-fold the tested concentration and stored at -70 degrees C prior to their use. All drugs and investigational agents were tested over a range starting from a high concentration at or near the clinical Cmax and decreasing in half-log increments. If the clinical Cmax for an agent had not been determined, the highest concentration tested was 10 microM.
# NCI60 Cell Culture. NCI60 cell lines were obtained from the NCI Developmental Therapeutics Program Tumor Repository. For each lot of cells, the Repository performed Applied Biosystems AmpFLSTR Identifiler testing with PCR amplification to confirm consistency with the published Identifier STR profile for each cell line. Cells were kept in continuous culture for no more than 20 passages. The optimal seeding densities for each of the cell lines at each time point assessed were determined prior to performing the concentration response studies. Briefly, the NCI60 human tumor lines were grown as monolayers in RPMI 1640 medium supplemented with 10% FBS and 2 mmol/L L-glutamine.
# An additional 9 lines were from the NCI60 cell line panel including MDA-MB-231 breast carcinoma, MDA-MB-468 breast carcinoma, MCF7 breast carcinoma, Hs578T breast carcinoma, MALME-3M melanoma, SK-MEL-2 melanoma, SK-OV-3 ovarian carcinoma, DU-145 prostate carcinoma, PC-3 prostate carcinoma, all cell lines along with major genetic alterations are listed on Table 2. Pooled donor human umbilical vein endothelial cells (HUVEC, Lonza, cat. CC-2519) and human mesenchymal stem cells (hMSC, Lonza, cat. PT-2501) were purchased from Lonza (Walkersville, MD).
# PDMR cell lines were grown in complete medium (DC medium): Dulbecco's modified Eagle's medium (DMEM)/F12 supplemented with 5% fetal bovine serum (FBS), 2 mM L-glutamine, 100 U/mL penicillin and 100 µg/ml streptomycin, 0.4 µg/ml hydrocortisone, 10 ng/ml epidermal growth factor (EGF) recombinant human protein, 24 µg/mL adenine, and 0.1 mg/mL primocin. During culture from frozen stock vials, PDMR cells were cultured in the same medium containing 10 µM Y-27632 (see Table 3). The PDCs were cultured in complete DMEM/F12 media without 10 microM Y-27632 dihydrochloride for at least two passages prior to the screen. The pooled donor HUVEC and hMSC were cultured in endothelial cell growth medium 2 (PromoCell, Heidelberg, Germany, cat. C-22011) and mesenchymal stem cell growth medium 2 (PromoCell, cat. C-28009), respectively. For all experiments, HUVEC and hMSC were used at passages </=5.
# […]
# 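Also: spheroids exposed to compounds for seven days before readout.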
# 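For viability, T/C in this document: T/C percent relative to DMSO vehicle wells set as 100% viability.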
compound,measurement,setting,value
Cc1nc(NC(=O)N2CCCC2C(N)=O)sc1-c1ccnc(C(C)(C)C(F)(F)F)c1 (stereo not given),"viability, T/C",compound 0.0316 µM,93.3% and 92%
same,"viability, T/C",compound 0.1 µM,85.5% and 87.4%
same,"viability, T/C",compound 0.316 µM,77.1% and 72.5%
same,"viability, T/C",compound 1 µM,53.9% and 63.8%
same,"viability, T/C",compound 3.16 µM,28% and 30.2%
same,"viability, T/C",compound 10 µM,3.02% and 2.66%
same,IC50,curve of compound,1230 nM and 1480 nM
Cn1cnc2c(F)c(Nc3ccc(Br)cc3Cl)c(C(=O)NOCCO)cc21,"viability, T/C",compound 0.00949 µM,85.5% and 87.7%
same,"viability, T/C",compound 0.03 µM,64.7% and 68.2%
same,"viability, T/C",compound 0.0949 µM,53.1% and 54.3%
same,"viability, T/C",compound 0.3 µM,50.3% and 50.7%
same,"viability, T/C",compound 0.949 µM,37.5% and 43.6%
same,"viability, T/C",compound 3 µM,35.4% and 42.1%
same,IC50,curve of compound,166 nM and 234 nM
Cn1ncc(Cl)c1-c1cc(C(=O)NC(CN)Cc2cccc(F)c2)sc1Cl (stereo not given),"viability, T/C",compound 0.0316 µM,85.7% and 79%
same,"viability, T/C",compound 0.1 µM,71.9% and 81.5%
same,"viability, T/C",compound 0.316 µM,60.7% and 58.4%
same,"viability, T/C",compound 1 µM,48% and 62.5%
same,"viability, T/C",compound 3.16 µM,17.1% and 21.7%
same,"viability, T/C",compound 10 µM,0.19%
same,IC50,curve of compound,650 nM and 1170 nM
Cn1nccc1Nc1nccc(-c2ccn(C(CO)c3ccc(Cl)c(F)c3)c(=O)c2)n1 (stereo not given),"viability, T/C",compound 0.0316 µM,93.2% and 90.2%
same,"viability, T/C",compound 0.1 µM,90.3% and 80.3%
same,"viability, T/C",compound 0.316 µM,71.5% and 79%
same,"viability, T/C",compound 1 µM,77.8% and 60.3%
same,"viability, T/C",compound 3.16 µM,85.2% and 81%
same,"viability, T/C",compound 10 µM,52.8% and 67.5%
same,IC50,curve of compound,> 10000 nM
Cn1ncnc1[C@H]1c2n[nH]c(=O)c3cc(F)cc(c23)N[C@@H]1c1ccc(F)cc1,"viability, T/C",compound 0.000316 µM,108% and 102%
same,"viability, T/C",compound 0.001 µM,100% and 95.7%
same,"viability, T/C",compound 0.00316 µM,96.7% and 99%
same,"viability, T/C",compound 0.01 µM,102% and 101%
same,"viability, T/C",compound 0.0316 µM,87.6% and 92.6%
same,"viability, T/C",compound 0.1 µM,83.5% and 84.1%
same,IC50,curve of compound,> 100 nM
Cn1cnc2c(F)c(Nc3ccc(Br)cc3Cl)c(C(=O)NOCCO)cc21 + CC(C)NCC(C(=O)N1CCN(c2ncnc3c2C(C)CC3O)CC1)c1ccc(Cl)cc1,IC50,"curve of first compound, second compound 0.1 µM",12.4 nM
same,IC50,"curve of first compound, second compound 0.316 µM",< 9.49 nM
same,IC50,"curve of first compound, second compound 1 µM",< 9.49 nM
same,IC50,"curve of first compound, second compound 3.16 µM",< 9.49 nM
same,IC50,"curve of first compound, second compound 10 µM",< 9.49 nM
same,"viability, T/C","second compound 0.1 µM, first compound 0.00949 µM",55%
same,"viability, T/C","second compound 0.1 µM, first compound 0.03 µM",35.1%
same,"viability, T/C","second compound 0.1 µM, first compound 0.0949 µM",27.4%
same,"viability, T/C","second compound 0.1 µM, first compound 0.3 µM",20.1%
same,"viability, T/C","second compound 0.1 µM, first compound 0.949 µM",18.3%
same,"viability, T/C","second compound 0.1 µM, first compound 3 µM",14%
same,"viability, T/C","second compound 0.316 µM, first compound 0.00949 µM",36.3%
same,"viability, T/C","second compound 0.316 µM, first compound 0.03 µM",19.5%
same,"viability, T/C","second compound 0.316 µM, first compound 0.0949 µM",14.1%
same,"viability, T/C","second compound 0.316 µM, first compound 0.3 µM",7.81%
same,"viability, T/C","second compound 0.316 µM, first compound 0.949 µM",7.98%
same,"viability, T/C","second compound 0.316 µM, first compound 3 µM",3.28%
same,"viability, T/C","second compound 1 µM, first compound 0.00949 µM",21.6%
same,"viability, T/C","second compound 1 µM, first compound 0.03 µM",12.9%
same,"viability, T/C","second compound 1 µM, first compound 0.0949 µM",5.36%
same,"viability, T/C","second compound 1 µM, first compound 0.3 µM",3.84%
same,"viability, T/C","second compound 1 µM, first compound 0.949 µM",2.91%
same,"viability, T/C","second compound 1 µM, first compound 3 µM",1.32%
same,"viability, T/C","second compound 3.16 µM, first compound 0.00949 µM",13.7%
same,"viability, T/C","second compound 3.16 µM, first compound 0.03 µM",6.24%
same,"viability, T/C","second compound 3.16 µM, first compound 0.0949 µM",3.66%
same,"viability, T/C","second compound 3.16 µM, first compound 0.3 µM",3.22%
same,"viability, T/C","second compound 3.16 µM, first compound 0.949 µM",2.57%
same,"viability, T/C","second compound 3.16 µM, first compound 3 µM",3.42%
same,"viability, T/C","second compound 10 µM, first compound 0.00949 µM",7.41%
same,"viability, T/C","second compound 10 µM, first compound 0.03 µM",4.11%
same,"viability, T/C","second compound 10 µM, first compound 0.0949 µM",1.36%
same,"viability, T/C","second compound 10 µM, first compound 0.3 µM",2.06%
same,"viability, T/C","second compound 10 µM, first compound 0.949 µM",1%
same,"viability, T/C","second compound 10 µM, first compound 3 µM",0.28%
